The test system of one test is CT26 cells. As to the kind of experiment: Phagocytosis of treated CT26 cells by J774.A1 macrophages. The format is cell-based, murine. Particulars: CT26 treated at IC50 for 24 h, cocultivated 4 h, J774.A1:CT26 1:2. The method, then:
Then, the cells in the samples were stained with CellTracker (red CMTPX; Thermo Fisher Scientific). At the same time, J774.A1 macrophages were stained with CellTracker (green CMFDA; ThermoFisher Scientific). […] Following the coincubation, the cells were harvested and analyzed with flow cytometry (BD FACS Verse). Total cell count was normalized to 3 × 10^4 macrophages. The data were analyzed with FCS Express 7 (DeNovo software; Glendale, CA).

The next test concerns CT26 and NCI-H2228 cells. Put plainly: Extracellular HMGB1 (ELISA). In kind it is cell-based. Particulars: IC50 concentrations, 24 h. The method, then: The amount of HMGB1 in the medium was determined using an enzyme-linked immunosorbent assay (ELISA).
CT26 and NCI-H2228 cells were seeded in 48-well plates at a density of 5 × 10^4 cells/well and grown overnight. […] Aliquots of the supernatants were then withdrawn and processed using the HMGB1 Express ELISA kit (TECAN) according to the manufacturer’s instructions. The final absorbance, proportional to the HMGB1 amount, was read at 420 nm using a multimode SPARK reader (TECAN).

The values below come from PMC12670396, “Crizotinib- or Ceritinib-Conjugated Platinum(IV) Prodrugs As Potent Multiaction Agents Inducing Antiproliferative Effects in 2D and 3D Cancer Cell Models” (Journal of Medicinal Chemistry, 2025).

Each structure is given as a SMILES string.

For `Cc1cc(Nc2ncc(Cl)c(Nc3ccccc3S(=O)(=O)C(C)C)n2)c(OC(C)C)cc1C1CCN(C(=O)[O][Pt]([Cl])([Cl])[O]C(=O)CCCc2ccccc2)CC1.N.N` [compound 7, ctc-[Pt(NH3)2(ceritinib)(PhB)Cl2]], the “double-stained (phagocytotic) population” value with CT26 cells was “significantly increased”.

With `CC(Oc1cc(-c2cnn(C3CCN(C(=O)[O][Pt]([Cl])([Cl])[O]C(=O)CCCc4ccccc4)CC3)c2)cnc1N)c1c(Cl)ccc(F)c1Cl.N.N` (stereo not drawn) [compound 3, ctc-[Pt(NH3)2(crizotinib)(PhB)Cl2]], the “double-stained (phagocytotic) population” value in the test on CT26 cells is given as “significantly increased”.

As to `N.N.[Cl][Pt][Cl]` [cisPt, cisplatin, reference compound], the “HMGB1 externalization relative to nontreated control” value in the test with CT26 and NCI-H2228 cells worked out at 2 fold.
